Experimental data published in the NIST ThermoML archive (doi:10.1016/j.jct.2018.02.022).
“And” between values parts separate entries of the source, which are not always exact repeats. Equal entries are not always repeated.

Assay: xn = mol fraction of the nth substance listed
Details: 92.3 kPa, Liquid; for viscosity: Concentric cylinders viscometry; for speed of sound: Frequency=3 MHz, Single path-length method; for mass density: Vibrating tube method

CCO [ethanol] + O
Details	mass density, 303.15 K	mass density, 308.15 K	speed of sound, 303.15 K [m/s]	speed of sound, 308.15 K [m/s]	viscosity, 303.15 K [mPa·s]	viscosity, 308.15 K [mPa·s]
x1 = 0.0024	994.464 kg/m3	992.863 kg/m3	1513.4	1523.3	–	–
x1 = 0.0201	986.86 kg/m3	985.15 kg/m3	–	–	0.9816	0.8821
x1 = 0.0202	986.01 kg/m3	984.706 kg/m3	1541.3	1548.3	–	–
x1 = 0.0295	983.11 kg/m3	981.361 kg/m3	1555	1560.3	–	–
x1 = 0.0366	980.577 kg/m3	978.735 kg/m3	1564.9	1568.9	–	–
x1 = 0.0408	978.54 kg/m3	976.58 kg/m3	–	–	1.162	1.006
x1 = 0.0497	976.06 kg/m3	973.32 kg/m3	–	–	1.223	1.073
x1 = 0.0513	975.532 kg/m3	973.534 kg/m3	1583.5	1584.5	–	–
x1 = 0.06	971.89 kg/m3 and 972.787 kg/m3	970.651 kg/m3 and 969.36 kg/m3	1592.4	1591.8	1.323	1.158
x1 = 0.0707	969.513 kg/m3	967.196 kg/m3	1601.4	1598.7	–	–
x1 = 0.0796	966.81 kg/m3	964.08 kg/m3	–	–	1.49	1.284
x1 = 0.0801	966.689 kg/m3	964.224 kg/m3	1607	1602.7	–	–
x1 = 0.0904	963.577 kg/m3	960.944 kg/m3	1610.8	1604.7	–	–
x1 = 0.0997	960.797 kg/m3	958.013 kg/m3	1611.9	1604.4	–	–
x1 = 0.1004	958.69 kg/m3	955.87 kg/m3	–	–	1.656	1.43
x1 = 0.1294	951.878 kg/m3	948.682 kg/m3	1602.7	1592.3	–	–
x1 = 0.1497	945.612 kg/m3	942.174 kg/m3	1588.3	1576.5	–	–
x1 = 0.1499	945.56 kg/m3	942.15 kg/m3	–	–	1.88	1.591
x1 = 0.1984	928.77 kg/m3	925.04 kg/m3	–	–	1.994	1.696
x1 = 0.2008	929.658 kg/m3	925.836 kg/m3	1540.8	1527.8	–	–
x1 = 0.2499	915.3 kg/m3	911.28 kg/m3	–	–	2.048	1.719
x1 = 0.2503	914.742 kg/m3	910.712 kg/m3	1493.5	1480	–	–
x1 = 0.2998	900.761 kg/m3	896.603 kg/m3	1450.6	1436.6	–	–
x1 = 0.3016	900.76 kg/m3	896.6 kg/m3	–	–	1.982	1.697
x1 = 0.3499	888.09 kg/m3	883.84 kg/m3	–	–	1.934	1.664
x1 = 0.3507	887.521 kg/m3	883.273 kg/m3	1411.8	1397.3	–	–
x1 = 0.399	876.09 kg/m3	871.78 kg/m3	–	–	1.863	1.617
x1 = 0.3992	875.988 kg/m3	871.678 kg/m3	1379.4	1364.6	–	–
x1 = 0.4495	865.03 kg/m3	860.66 kg/m3	–	–	1.783	1.55
x1 = 0.4514	864.712 kg/m3	860.353 kg/m3	1348.7	1333.4	–	–
x1 = 0.4989	855.7 kg/m3	851.3 kg/m3	–	–	1.697	1.482
x1 = 0.5002	854.622 kg/m3	850.223 kg/m3	1322.3	1306.7	–	–
x1 = 0.5494	845.433 kg/m3	841.009 kg/m3	1298.6	1282.7	–	–
x1 = 0.5495	846.35 kg/m3	841.93 kg/m3	–	–	1.636	1.437
x1 = 0.6018	836.274 kg/m3	831.83 kg/m3	1275.2	1259	–	–
x1 = 0.6067	835.6 kg/m3	831.06 kg/m3	–	–	1.528	1.347
x1 = 0.6503	828.55 kg/m3 and 828.435 kg/m3	823.98 kg/m3 and 824.09 kg/m3	1255.3	1238.8	1.46	1.292
x1 = 0.6956	821.65 kg/m3	817.19 kg/m3	–	–	1.388	1.229
x1 = 0.7006	820.66 kg/m3	816.2 kg/m3	1235.5	1218.8	–	–
x1 = 0.7355	815.498 kg/m3	811.052 kg/m3	1222.2	1206.3	–	–
x1 = 0.75	813.63 kg/m3	809.16 kg/m3	–	–	1.315	1.171
x1 = 0.7843	809.09 kg/m3	804.63 kg/m3	–	–	1.272	1.135
x1 = 0.7965	807.074 kg/m3	802.628 kg/m3	1199.9	1183	–	–
x1 = 0.8433	800.833 kg/m3	796.401 kg/m3	1183.1	1166.1	–	–
x1 = 0.8475	801.24 kg/m3	796.81 kg/m3	–	–	1.201	1.077
x1 = 0.8864	795.58 kg/m3	791.17 kg/m3	–	–	1.141	1.027
x1 = 0.892	794.442 kg/m3	790.037 kg/m3	1165.4	1148.7	–	–
x1 = 0.9093	792.256 kg/m3	787.861 kg/m3	1159.2	1142.6	–	–
x1 = 0.9207	790.841 kg/m3	786.448 kg/m3	1155.2	1138.3	–	–
x1 = 0.929	789.85 kg/m3	785.46 kg/m3	–	–	1.086	0.9821
x1 = 0.9307	789.562 kg/m3	785.175 kg/m3	1151.5	1134.6	–	–
x1 = 0.9398	788.477 kg/m3	784.096 kg/m3	1148.3	1131.4	–	–
x1 = 0.9483	787.394 kg/m3	783.019 kg/m3	1145.2	1128.4	–	–
x1 = 0.9603	785.958 kg/m3	781.59 kg/m3	1141.1	1124.2	–	–
x1 = 0.9702	784.743 kg/m3	780.379 kg/m3	1137.5	1120.6	–	–
x1 = 0.9801	783.417 kg/m3	779.061 kg/m3	1134.3	1117.5	–	–
x1 = 0.9895	782.456 kg/m3	778.103 kg/m3	1130.8	1114	–	–
x1 = 1	780.941 kg/m3	776.592 kg/m3	1126.4	1109.6	0.992	0.9039
